{"source": "patent US20200022998A1", "about": "“MEDICAL USE OF NOTCH4 OR INHIBITORS THEREOF” (BEIJING INSTITUTE OF GENOMICS, CHINESE ACADEMY OF SCIENCES, priority 2016, published 2020)", "key": {"normal iPSC BC1": {"test_system": "normal iPSC BC1", "assay": "in vitro megakaryocyte lineage differentiation of iPSC BC1 (spin-EB), flow cytometry at Day 14", "format": "cell-based, human", "experimental": "BC1 cell line was cultured in E8 medium, under the culture condition of 37° C., 5% CO2, and was passaged at (1:5)-(1:10) every 3-4 days depending on the concentration of cells. The cells were incubated in 0.5 mM EDTA, at room temperature for 2 min, and then were re-suspended and split up and down with E8 medium, and transferred to a culture dish that had been coated with Vitronectin one hour before.\nDuring differentiation, spin-embryoid body (spin-EB) method was used (Ng E S, Davis R, Stanley E G, Elefanty A G, A protocol describing the use of a recombinant protein-based, animal product-free medium (APEL) for human embryonic stem cell differentiation as spin embryoid bodies, Nat Protoc. 2008; 3(5): 768-76.). At Day 0 (D0) after differentiation, iPSCs reached a confluence of above 85% (confluence refers to the percentage of the surface of a culture dish that is covered by adherent cells). After digestion with Accutase at 37° C. for 3 min, the cells were neutralized and split in SFM medium (50% IMDM, 50% Ham's F12, and the added reagents and factors including: human albumin, monothioglycerol, Glutamax, Chemically Defined Lipid Concentrate, L-Ascorbic acid 2-phosphate sesquimagnesium salt hydrate, ITS-X), counted, and centrifuged. After the cells were re-suspended in SFM, cytokines, i.e. 10 μM ROCK inhibitor (Rho-associated protein kinase inhibitor), 10 ng/ml bFGF, and 10 ng/ml BMP4, were added. Cells were seeded to a round-bottom 96-well plate, at 3000 or 5000 cells/50 μl for each well (3000 or 5000 cells were seeded to each well, in a volume of 50 μl for each well). At Day 2, 50 μl SFM medium+10 ng/ml bFGF+10 ng/ml BMP4+100 ng/ml SCF+20 ng/ml VEGF was added to each well. At Day 5, Day 8, and Day 11, 50 μl SFM medium+10 ng/ml bFGF+10 ng/ml BMP4+50 ng/ml SCF+10 ng/ml VEGF was added to each well, wherein 100 μl old medium was pipetted off at Day 8, and 10 ng/ml thrombopoietin (TPO) was added to each well at Day 11.\nAt Day 14 (D14), single cells (suspending cells) surrounding embryoid bodies (EBs) were collected. The cells were used in the following flow cytometry.\nThe cell surface markers (CD34, CD45, CD41, CD42) of the collected cells were detected by flow cytometer. The assay was as followed.\nThe detection was carried out in four tubes: the first tube was a negative tube that was not labeled with any flow antibody; the second tube was labelled with two antibodies CD34-APC and CD45-PE; the third tube was labeled with CD34-APC and CD41-PE; and the fourth tube was labeled with CD41-PE and CD42-APC, wherein CD34^+CD45^+represented the population of hematopoietic stem/progenitor cells (HSPCs), CD34^+CD41^+ represented the population of megakaryocyte progenitor cells (MKPs), and CD41^+CD42^+ represented the population of mature megakaryocytes (MKs).\n(1) The BC1 cell line used was the same as the one used in Example 1, and was divided into three groups, wherein two 96-well plates were used for each group, and the cells were seeded at 5000 cells/50 μl to each well. In vitro differentiation was carried out by reference to the steps in Example 1, wherein the step of adding a drug was carried out in accordance with the following steps in I-III groups:\nI. At Day 0 after differentiation, 10 μM RO4929097 was added, and DMSO was added to the control well.\nIII. At Day 2 after differentiation, 10 μM RO4929097, 10 μM L-685458, and 10 μM DAPT were added, respectively; in addition, at Day 5 after differentiation, 10 μM RO4929097, 10 μM L-685458, and 10 μM DAPT were added, respectively.\n(2) The cells were collected for flow cytometry analysis, and as to the steps, please refer to the Example 1 above. […]\nI. At Day 0 after differentiation, 10 μM RO4929097, and 10 μM DAPT were added, respectively.\nII. At Day 2 after differentiation, 10 μM RO4929097, and 10 μM DAPT were added, respectively.\nIII. At Day 5 after differentiation, 10 μM RO4929097, and 10 μM DAPT were added, respectively.\nIV. […]"}, "[1]": {"test_system": "umbilical cord blood-derived CD34+ cells", "assay": "in vitro megakaryocyte lineage differentiation of umbilical cord blood-derived CD34+ cells, flow cytometry", "format": "cell-based, human", "details": "10 μM; cells collected at D14; FIG. 14", "experimental": "(1) CD34^+ cells in umbilical cord blood were obtained by Ficoll-Paque PLUS density gradient centrifugation and magnetic bead sorting using CD34 MicroBead Kit. As to the particular steps, please refer to (GE Healthcare Life Sciences, http://www.gelifesciences.com), (Miltenyi Biotec, http://www.miltenyibiotec.com.cn).\n(2) Differentiation of umbilical cord blood-derived CD34^+ cells into megakaryocytes: umbilical cord blood-derived CD34^+ cells were counted, and seeded at 1*10^6 cells to 4 ml StemSpan™ SFEM 11+50 ng/ml SCF+50 ng/ml TPO+50 ng/ml IL-6+20 ng/ml IL-3 in a 12-well plate, with 1 ml medium for each well, and four wells in total, to which 10 μM R04929097, 10 μM L-685458, 10 μM DAPT, and the same volume of DMSO as control were added, respectively, and the time was recorded as Day 0. The liquid was changed every 3 days, and the culture condition was 37° C., 5% CO2. After incubation for 6 days, the cell density was high, and the cells in each well were divided into two wells of a 12-well plate, with 2 ml medium for each well. The inhibitors were added at the same concnetrations as described above. The cells were collected at D14, counted, and detected for cell surface markers (CD41, CD42, CD61) by flow cytometer.\nAs to the collection of umbilical cord blood-derived CD34^+ cells, in vitro megakaryocytic differentiation and detection, please refer to Example 4-1."}}}
{"smiles": "CC(C)C[C@H](NC(=O)[C@H](Cc1ccccc1)C[C@@H](O)[C@H](Cc1ccccc1)NC(=O)OC(C)(C)C)C(=O)N[C@@H](Cc1ccccc1)C(N)=O", "note": "[L-685458]", "values": [{"measurement": "increase of proportion of mature megakaryocytes produced vs DMSO control", "setting": "normal iPSC BC1; 5 μM added at Day 2, FIG. 6", "value": 21, "unit": "%"}, {"measurement": "decrease of proportion of HSPCs (CD34+CD45+) vs DMSO control", "setting": "normal iPSC BC1; 10 μM added at Day 2, FIG. 7A", "value": 27, "unit": "%"}, {"measurement": "proportion of MKPs (CD34+CD41+) produced, increased fold vs DMSO control (set as 1)", "setting": "normal iPSC BC1; 10 μM added at Day 2, FIG. 7A", "value": "about 1.5 folds"}, {"measurement": "proportion of mature megakaryocytes MKs (CD41+CD42+) produced, increased fold vs DMSO control (set as 1)", "setting": "normal iPSC BC1; 10 μM added at Day 2, FIG. 7A", "value": "about 2.3 folds"}, {"measurement": "proportion of HSPCs produced, increased fold vs DMSO control (set as 1)", "setting": "normal iPSC BC1; 10 μM added at Day 5, FIG. 7B", "value": "about 1.5 folds"}, {"measurement": "proportion of MKPs produced, increased fold vs DMSO control (set as 1)", "setting": "normal iPSC BC1; 10 μM added at Day 5, FIG. 7B", "value": "about 1.2 folds"}, {"measurement": "proportion of mature megakaryocytes MKs produced, increased fold vs DMSO control (set as 1)", "setting": "normal iPSC BC1; 10 μM added at Day 5, FIG. 7B", "value": "about 3.8 folds"}, {"measurement": "total number of hematopoietic cells, increase vs control group", "setting": "normal iPSC BC1; 10 μM added at Day 5, FIG. 7B", "value": 2.3, "unit": "folds"}, {"measurement": "production of megakaryocyte progenitor cells and/or mature megakaryocytes in vitro", "setting": "normal iPSC BC1; screen in the in vitro differentiation system of stem cells", "value": "significantly promote"}, {"measurement": "proportion of mature megakaryocyte (CD61+), increase vs control group", "setting": "[1]", "value": 2.4, "unit": "folds"}, {"measurement": "proportion of mature megakaryocytes MK (CD41+CD42+) produced, increase vs control group", "setting": "[1]", "value": 2.3, "unit": "folds"}]}
